Source: BindingDB's records for doi:10.1039/d3md00036b (n/a, 2023)

Target: Metallo-beta-lactamase type 2 (Klebsiella pneumoniae, UniProt C7C422)
Test: Binding affinity to bacterial NDM-1 (unknown origin) assessed as inhibition constant

Chain of Metallo-beta-lactamase type 2 (C7C422 whole entry): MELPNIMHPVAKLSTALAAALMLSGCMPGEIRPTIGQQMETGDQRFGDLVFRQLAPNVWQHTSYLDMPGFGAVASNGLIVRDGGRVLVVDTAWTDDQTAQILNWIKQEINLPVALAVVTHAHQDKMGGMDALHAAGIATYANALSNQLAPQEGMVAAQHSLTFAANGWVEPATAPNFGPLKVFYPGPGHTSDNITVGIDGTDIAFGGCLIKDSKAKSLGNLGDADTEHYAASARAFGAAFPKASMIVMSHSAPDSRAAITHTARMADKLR

## CN1CCN(C(=S)N/N=C/c2ccccc2O)CC1
  Ki: 0.44 nM
